From patent US20240174690A1, “ANNULATED 2-AMINO-3-CYANO THIOPHENES AND DERIVATIVES FOR THE TREATMENT OF CANCER” (BOEHRINGER INGELHEIM INTERNATIONAL GMBH, priority 2021, published 2024) come the findings set out here.

For assay [1], the system named is SK-CO-1 cells. The experiment in a line: SK-CO-1 CTG proliferation assay (120 h) (CRC, G12V). Format: cell-based. The note with it: SK-CO-1 cells (CRC, G12V), CTG 120 h. The gist of the method: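 SK-CO-1 colorectal cells (KRAS G12V), 500 per well in EMEM + 10% FCS, dosed with compound the day after seeding and grown 120 h at 37 °C. Viability by CellTiter-Glo luminescence as percent of DMSO control; IC50 from four-parameter non-linear regression.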

Assay [2] has as its target KRAS (G12C)::SOS1 (Homo sapiens (Human), UniProt P01116, C118S/C51S/C80L/G12C). Put plainly: KRAS::SOS1 AlphaScreen binding assay, KRAS G12C. Put shortly: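 KRAS 1-169 (biotinylated avi-tag) with GST-SOS1 564-1049 and 10 µM GDP in PBS/0.1% BSA/0.05% Tween 20: WT and G13D 10 nM each with 10 nM SOS1; G12D 10 nM and G12C 7.5 nM with 5 nM SOS1. After 30 min, glutathione acceptor/streptavidin donor beads were added for 60 min at RT in the dark, then AlphaScreen read; 4-parameter IC50.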

SMILES strings stand for the structures.

Chain of KRAS (G12C)::SOS1 (P01116 other isoform, or with tags, fused parts or gaps G12C/C51S/C80L/C118S): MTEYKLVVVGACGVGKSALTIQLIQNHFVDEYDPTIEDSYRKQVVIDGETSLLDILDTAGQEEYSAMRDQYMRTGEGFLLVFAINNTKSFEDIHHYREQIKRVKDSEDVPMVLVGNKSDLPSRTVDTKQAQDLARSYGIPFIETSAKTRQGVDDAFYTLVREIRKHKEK

Turning to `C[C@H](Oc1cc(-n2ccc(C(=O)NC3COC3)n2)nc(-c2noc3c2CCC[C@@]32CCCc3sc(N)c(C#N)c32)n1)[C@@H]1CCCN1C` [II-25], the results for the IC50 in assay [1] (Homo sapiens) and in assay [2] were 3 nM and 1 nM, respectively.
Consider `C[C@H](Oc1cc([C@@H]2CCOC2)nc(-c2onc3c2CCC[C@@]32CCCc3sc(N)c(C#N)c32)n1)[C@@H]1CCCN1C` [I-22], for which the figures for the IC50 in assay [1] (Homo sapiens) and in assay [2] were 20 nM and 2 nM, respectively.
For `CCOC(=O)c1ccn(-c2cc(O[C@@H](C)[C@@H]3CCCN3C)nc(-c3noc4c3CCC[C@@]43CCCc4sc(N)c(C#N)c43)n2)n1` [II-23], in that order: 31 nM and 1 nM.
For `C[C@H]1CN(C)CCCN1c1cc(N2CC[C@H](N(C)C)C2)nc(-c2noc3c2CCC[C@@]32CCCc3sc(N)c(C#N)c32)n1` [II-16], the half-maximal inhibitory concentration (IC50) was found to be 1870 nM in assay [1] (Homo sapiens) and 74 nM in assay [2].
On to `C[C@H](Oc1cc(-n2ccc(C(=O)N(C)C3COC3)n2)nc(-c2onc3c2CCC[C@@]32CCCc3sc(N)c(C#N)c32)n1)[C@@H]1CCCN1C` [I-60], for which the IC50 in assay [1] (Homo sapiens) came to 21 nM; in assay [2], 1 nM.
On to `C[C@H](Oc1cc(N2C[C@@H](N(C)C)[C@@H](F)C2)nc(-c2noc3c2CCC[C@@]32CCCc3sc(N)c(C#N)c32)n1)[C@@H]1CCCN1C` [II-11], for which the IC50 in assay [1] (Homo sapiens) was found to be 800 nM; in assay [2], 6 nM.
Regarding `C[C@H](Oc1cc(-n2ccc(C(=O)N3CCCC3)n2)nc(-c2noc3c2CCC[C@@]32CCCc3sc(N)c(C#N)c32)n1)[C@@H]1CCCN1C` [II-19], the results for the IC50 in assay [1] (Homo sapiens) and in assay [2] were 11 nM and 1 nM, respectively.
Take `C[C@H](Oc1cc(N2CC[C@H](N3CCCCC3)C2)nc(-c2noc3c2CCC[C@@]32CCCc3sc(N)c(C#N)c32)n1)[C@@H]1CCCN1C` [II-12]: the results for the IC50 in assay [1] (Homo sapiens) and in assay [2] were 819 nM and 8 nM, respectively.
In the case of `C[C@@H]1CN(c2cc(O[C@@H](C)[C@@H]3C[C@@H](F)CN3C)nc(-c3noc4c3CCC[C@@]43CCCc4sc(N)c(C#N)c43)n2)CC2(CC2)N1` [II-17], the IC50 turned out to be 617 nM in assay [1] (Homo sapiens) and 3 nM in assay [2].
Consider `C[C@H](Oc1cc(-c2ccn(C3COC3)n2)nc(-c2onc3c2CCC[C@@]32CCCc3sc(N)c(C#N)c32)n1)[C@@H]1CCCN1C` [I-34], for which the figures for the IC50 in assay [1] (Homo sapiens) and in assay [2] were 84 nM and 2 nM, respectively.
For `C[C@H](Oc1cc(N2CCN(C)CC2)nc(-c2noc3c2CCC[C@@]32CCCc3sc(N)c(C#N)c32)n1)[C@@H]1CCCN1[C@@H]1CCOC1` [II-39], in that order: 1240 nM and 6 nM.
On to `C[C@H]1CN(C)CCCN1c1cc(N2CCN(C)CC2)nc(-c2noc3c2CCC[C@@]32CCCc3sc(N)c(C#N)c32)n1` [II-30], for which the figures for the IC50 in assay [1] (Homo sapiens) and in assay [2] were 9070 nM and 19 nM, respectively.
Regarding `[2H]C([2H])([2H])N1C[C@H](F)C[C@H]1[C@H](C)Oc1cc(N2CCN(C)C3(CC3)C2)nc(-c2noc3c2CCC[C@@]32CCCc3sc(N)c(C#N)c32)n1` [II-209], the IC50 was 1390 nM in assay [1] (Homo sapiens) and 4 nM in assay [2].
With `C[C@H](Oc1cc(-n2ccc(C(=O)N[C@H]3CCOC3)n2)nc(-c2onc3c2CCC[C@@]32CCCc3sc(N)c(C#N)c32)n1)[C@@H]1CCCN1C` [I-57], the IC50 in assay [1] (Homo sapiens) was determined as 4 nM; in assay [2], 2 nM.
For `[2H]C([2H])([2H])N1C[C@H](F)C[C@H]1[C@H](C)Oc1cc(N2CCNC3(CC3)C2)nc(-c2noc3c2CCC[C@@]32CCCc3sc(N)c(C#N)c32)n1` [II-208], in that order: 398 nM and 1 nM.
For `CO[C@@H]1C[C@@H]([C@H](C)Oc2cc(N3CCN(C)C4(CC4)C3)nc(-c3onc4c3CCC[C@@]43CCCc4sc(N)c(C#N)c43)n2)N(C)C1` [I-50], the IC50 in assay [1] (Homo sapiens) came to 2050 nM; in assay [2], 5 nM.
For `C[C@H](Oc1cc(N2CCNC3(CCCC3)C2)nc(-c2noc3c2CCC[C@@]32CCCc3sc(N)c(C#N)c32)n1)[C@@H]1CCCN1C` [II-41], the IC50 is 910 nM in assay [1] (Homo sapiens) and 9 nM in assay [2].
In the case of `C[C@H](Oc1cc(-c2ccn(CC(C)(C)O)n2)nc(-c2onc3c2CCC[C@@]32CCCc3sc(N)c(C#N)c32)n1)[C@@H]1CCCN1C` [I-26], the IC50 in assay [1] (Homo sapiens) amounted to 118 nM; in assay [2], 2 nM.
Take `C[C@H](Oc1cc(N2CC(N(C)C)C2)nc(-c2noc3c2CCC[C@@]32CCCc3sc(N)c(C#N)c32)n1)[C@@H]1CCCN1C` [II-7]: the IC50 turned out to be 1240 nM in assay [1] (Homo sapiens) and 5 nM in assay [2].
For `COCCNC(=O)c1ccn(-c2cc(O[C@@H](C)[C@@H]3[C@@H](OC)CCN3C)nc(-c3onc4c3CCC[C@@]43CCCc4sc(N)c(C#N)c43)n2)n1` [I-55] the same measures were 9 nM and 1 nM.
For the compound `C[C@H](Oc1cc(-c2ccn(C)n2)nc(-c2noc3c2CCC[C@@]32CCCc3sc(N)c(C#N)c32)n1)[C@@H]1C[C@@H](F)CN1C` [II-27], the IC50 in assay [1] (Homo sapiens) was 115 nM; in assay [2], 2 nM.
In the case of `C[C@H](Oc1cc(-n2ccnc2)nc(-c2onc3c2CCC[C@@]32CCCc3sc(N)c(C#N)c32)n1)[C@@H]1CCCN1C` [I-20], the IC50 amounted to 185 nM in assay [1] (Homo sapiens) and 2 nM in assay [2].
Turning to `C[C@H](Oc1cc(C2CCCO2)nc(-c2noc3c2CCC[C@@]32CCCc3sc(N)c(C#N)c32)n1)[C@@H]1CCCN1C` (stereo partly drawn) [II-44], the IC50 in assay [1] (Homo sapiens) came out at 193 nM; in assay [2], 2 nM.
For `C[C@H](Oc1cc(-n2ccnn2)nc(-c2onc3c2CCC[C@@]32CCCc3sc(N)c(C#N)c32)n1)[C@@H]1CCCN1C` [I-32] the same measures were 111 nM and 2 nM.
Turning to `C[C@H](Oc1cc(-n2ccc(C(=O)N[C@@H]3CCOC3)n2)nc(-c2onc3c2CCC[C@@]32CCCc3sc(N)c(C#N)c32)n1)[C@@H]1CCCN1C` [I-56], the IC50 in assay [1] (Homo sapiens) was 8 nM; in assay [2], 2 nM.
Consider `CN[C@H]1CCN(c2cc(O[C@@H](C)[C@@H]3CCCN3C)nc(-c3noc4c3CCC[C@@]43CCCc4sc(N)c(C#N)c43)n2)C1` [II-35], for which the IC50 in assay [1] (Homo sapiens) came out at 5730 nM; in assay [2], 7 nM.
For `C[C@H](Oc1cc(N2CCNC3(COC3)C2)nc(-c2noc3c2CCC[C@@]32CCCc3sc(N)c(C#N)c32)n1)[C@@H]1CCCN1C` [II-31], the results for the IC50 in assay [1] (Homo sapiens) and in assay [2] were 365 nM and 2 nM, respectively.
For `C[C@@H]1CN(c2cc(O[C@@H](C)[C@@H]3CCCN3C)nc(-c3noc4c3CCC[C@@]43CCCc4sc(N)c(C#N)c43)n2)C[C@H](C)N1` [II-36] the same measures were 1120 nM and 2 nM.
With `C[C@H](Oc1cc(N2CCNC3(CC3)C2)nc(-c2onc3c2CCC[C@@]32CCCc3sc(N)c(C#N)c32)n1)[C@@H]1C[C@@H](F)CN1C` [I-45], the IC50 in assay [1] (Homo sapiens) worked out at 763 nM; in assay [2], 4 nM.
In the case of `C[C@H](Oc1cc(N2CCNC(C)(C)C2)nc(-c2noc3c2CCC[C@@]32CCCc3sc(N)c(C#N)c32)n1)[C@@H]1CCCN1C` [II-32], the IC50 in assay [1] (Homo sapiens) stood at 704 nM; in assay [2], 2 nM.
Take `C[C@H](Oc1cc(-c2ccn3ncnc3c2)nc(-c2onc3c2CCC[C@@]32CCCc3sc(N)c(C#N)c32)n1)[C@@H]1CCCN1C` [I-33]: the IC50 in assay [1] (Homo sapiens) came out at 181 nM; in assay [2] it was 2 nM.
As for `C[C@H](Oc1cc(N2CCNC3(COC3)C2)nc(-c2onc3c2CCC[C@@]32CCCc3sc(N)c(C#N)c32)n1)[C@@H]1CCCN1C` [I-4], the IC50 in assay [1] (Homo sapiens) was 541 nM; in assay [2] it was 2 nM.
With `C[C@H](Oc1cc(N2CCN(C)C3(CCC3)C2)nc(-c2onc3c2CCC[C@@]32CCCc3sc(N)c(C#N)c32)n1)[C@@H]1CCCN1C` [I-44], the IC50 in assay [1] (Homo sapiens) is 1210 nM; in assay [2], 13 nM.
For the compound `C[C@H](Oc1cc([C@H]2CCN(C)C2)nc(-c2noc3c2CCC[C@@]32CCCc3sc(N)c(C#N)c32)n1)[C@@H]1CCCN1C` [II-38], the IC50 in assay [1] (Homo sapiens) was 174 nM; in assay [2] it was 2 nM.
As to `C[C@H](Oc1cc(N2C[C@H](C)N(C)[C@@H](C)C2)nc(-c2onc3c2CCC[C@@]32CCCc3sc(N)c(C#N)c32)n1)[C@@H]1CCCN1C` [I-43], the results for the concentration for half-maximal inhibition (IC50) in assay [1] (Homo sapiens) and in assay [2] were 892 nM and 6 nM, respectively.
In the case of `C[C@H](Oc1cc(N2C[C@@H](N(C)C)[C@@H](O)C2)nc(-c2noc3c2CCC[C@@]32CCCc3sc(N)c(C#N)c32)n1)[C@@H]1CCCN1C` [II-10], the figures for the IC50 in assay [1] (Homo sapiens) and in assay [2] were 1660 nM and 7 nM, respectively.
In the case of `CO[C@H]1CCN(C)[C@@H]1[C@H](C)Oc1cc(-n2ccc(C(=O)N[C@@H]3CCOC3)n2)nc(-c2onc3c2CCC[C@@]32CCCc3sc(N)c(C#N)c32)n1` [I-53], the results for the IC50 in assay [1] (Homo sapiens) and in assay [2] were 7 nM and 1 nM, respectively.
Regarding `C[C@H](Oc1cc(-n2nccn2)nc(-c2onc3c2CCC[C@@]32CCCc3sc(N)c(C#N)c32)n1)[C@@H]1CCCN1C` [I-29], the IC50 in assay [1] (Homo sapiens) was 381 nM; in assay [2], 3 nM.
Regarding `C[C@H](Oc1cc(-c2ccn(C)n2)nc(-c2onc3c2CCC[C@@]32CCCc3sc(N)c(C#N)c32)n1)[C@@H]1CCCN1C` [I-21], the IC50 in assay [1] was determined as 30 nM; in assay [2], 2 nM.
On to `C[C@H](Oc1cc(-c2ccc(N)nc2)nc(-c2onc3c2CCC[C@@]32CCCc3sc(N)c(C#N)c32)n1)[C@@H]1CCCN1C` [I-25], for which the IC50 in assay [1] (Homo sapiens) worked out at 357 nM; in assay [2], 2 nM.
Turning to `C[C@H](Oc1cc(-n2ccc(C(N)=O)n2)nc(-c2noc3c2CCC[C@@]32CCCc3sc(N)c(C#N)c32)n1)[C@@H]1CCCN1C` [II-21], the IC50 amounted to 6 nM in assay [1] (Homo sapiens) and 2 nM in assay [2].
For `CO[C@H]1CCN(C)[C@@H]1[C@H](C)Oc1cc(-n2ccc(CC(=O)NC(C)C)n2)nc(-c2onc3c2CCC[C@@]32CCCc3sc(N)c(C#N)c32)n1` [I-48], in that order: 14 nM and 2 nM.
